Legend:
Assay type in all cases: functional
[1] = tested on: B16; assay: Antitumor activity against mouse B16 cells allografted in ip dosed BDF mouse assessed as 25% increase in life span administered for 9 days
[2] = tested on: B16; assay: Antitumor activity against mouse B16 cells allografted in BDF mouse assessed as increase in life span at 25 mg/kg, ip administered for 9 days relative to untreated control; details: route intraperitoneal
[3] = tested on: B16; assay: Antitumor activity against mouse B16 cells allografted in BDF mouse assessed as increase in life span at 100 mg/kg, ip administered for 9 days relative to untreated control; details: route intraperitoneal
[4] = tested on: B16; assay: Antitumor activity against mouse B16 cells allografted in BDF mouse assessed as increase in life span at 8 mg/kg, ip administered for 9 days relative to untreated control; details: route intraperitoneal
[5] = tested on: B16; assay: Antitumor activity against mouse B16 cells allografted in BDF mouse assessed as increase in life span at 4 mg/kg, ip administered for 9 days relative to untreated control; details: route intraperitoneal

SMILES	log(1/C) [1]	T/C [2]	T/C [3]	T/C [4]	T/C [5]
NC(=O)Nc1cc(NC(N)=O)cc(N(CCCl)CCCl)c1	3.69	108%	–	–	–
ClCCN(CCCl)c1ccc(/C=C/c2ccccc2)cc1	2.86	–	101%	–	–
O=C(O)CCCc1ccc(N(CCCl)CCCl)cc1 [CHLORAMBUCIL]	4.7	–	–	133%	–
NC(Cc1ccc(N(CCCl)CCCl)cc1)C(=O)O (stereo not drawn) [SARCOLYSIN]	6.18	–	–	–	236%
